Assay results reported in article PMC2576352, “The V1-V3 region of a brain-derived HIV-1 envelope glycoprotein determines macrophage tropism, low CD4 dependence, increased fusogenicity and altered sensitivity to entry inhibitors” (Retrovirology, 2008).
Peptide text beside a SMILES is read from it.

Tests used:
HxB Env pseudotype = test: Inhibition of pseudotype infection by entry/fusion inhibitors, HxB Env; assay type: cell-based, HIV-1; settings: inhibitor + virus 5–6 h at 37°C, luciferase at 2–3 days, non-linear regression, 95% confidence limits in parentheses
Procedure: (§1) To produce Env-pseudotyped, luciferase-reporter viruses, 293T cells were co-transfected using calcium phosphate precipitation (ProFection Mammalian Transfection System, Promega, Madison, WI) with each Env expression vector and with the Env-deficient, pNL4-3-luc^+env^- provirus, developed by N. Landau by introducing a frameshift mutation in the env gene of pNL4-3-luc^+ [87]. Culture supernatants containing the pseudotyped particles were collected 48–72 hours after transfection, clarified by centrifugation, aliquoted and stored at -80°C until use. Pseudotype particles lacking envelope glycoproteins, which are generated by co-transfecting the luciferase HIV-1 pro-viral backbone with an empty expression vector, are used as negative control for all pseudotype infections. Pseudotype stocks were quantitated using a p24^gag antigen capture ELISA (SAIC-National Cancer Institute) and normalized amounts of stocks were used to infect target cells for 5–6 hours at 37°C. At 2–3 days post-infection, the cells were washed with PBS and lysed, and the amount of entry mediated by each Env was measured by detecting luciferase activity (Luciferase Assay System, Promega) in a microplate luminometer (GloMax, Promega), following manufacturer's instructions. Results are obtained as relative light units (RLU) per second. […]

macrophage-tropic Env = settings: Peters et al.; cited from earlier work
Text: Therefore, low CD4 dependence seems to correlate not only with fusogenicity and with the sensitivity to fusion and other entry inhibitors, but also with the macrophage tropism of Env. This is in agreement with recent work by Thomas et al. reporting that Env conferring macrophage tropism display low CD4 dependence and higher efficiency of fusion.

[1] = tested on: Spl(T283N) mutant Env pseudotype; test: Inhibition of pseudotype infection by entry/fusion inhibitors, Spl(T283N) Env; assay type: cell-based, HIV-1; settings: HOS-CD4-CCR5 cells, inhibitor + virus 5–6 h at 37°C, luciferase at 2–3 days, non-linear regression, 95% confidence limits in parentheses
Procedure: as §1

[2] = tested on: Sv1v2 chimeric Env pseudotype; test: Inhibition of pseudotype infection by entry/fusion inhibitors, Sv1v2 Env; assay type: cell-based, HIV-1; settings: HOS-CD4-CCR5 cells, inhibitor + virus 5–6 h at 37°C, luciferase at 2–3 days, non-linear regression, 95% confidence limits in parentheses
Procedure: as §1

[3] = tested on: Sv1v3 chimeric Env pseudotype; test: Inhibition of pseudotype infection by entry/fusion inhibitors, Sv1v3 Env; assay type: cell-based, HIV-1; settings: HOS-CD4-CCR5 cells, inhibitor + virus 5–6 h at 37°C, luciferase at 2–3 days, non-linear regression, 95% confidence limits in parentheses
Procedure: as §1

[4] = tested on: pseudotypes containing wild-type, chimeric and mutant Env; test: Inhibition of pseudotype infection by entry/fusion inhibitors, Env panel; assay type: cell-based, HIV-1
Procedure: as §1
Inhibition curves obtained by plotting the relative infection (expressed as a percent of untreated) versus the concentration of the inhibitor were analyzed by non-linear regression with a sigmoidal dose-response model (variable slopes) using GraphPad Prism software, version 4.02 (GraphPad Software, San Diego, CA); this analysis uses a four parameter logistic equation, Y = Bottom + (Top-Bottom)/( 1+10^((log10IC50−X)⋅Slope) ) where Y is the response, Bottom is 0 and Top is 100, X is the logarithm of the concentration, and Slope is the slope of the curve. […] Fusogenicity data were analyzed by non-linear regression with a one-phase exponential model (using GraphPad Prism) that uses the equation Y=Ymax(1-e^(-kX)), where Ymax is the maximum response and k is the observed rate. […]

DS17 Env pseudotype = assay type: cell-based, HIV-1; settings: HOS-CD4-CCR5 cells, inhibitor + virus 5–6 h at 37°C, luciferase at 2–3 days, non-linear regression, 95% confidence limits in parentheses
Procedure: (§2) To produce Env-pseudotyped, luciferase-reporter viruses, 293T cells were co-transfected using calcium phosphate precipitation (ProFection Mammalian Transfection System, Promega, Madison, WI) with each Env expression vector and with the Env-deficient, pNL4-3-luc^+env^- provirus, developed by N. Landau by introducing a frameshift mutation in the env gene of pNL4-3-luc^+ [87]. Culture supernatants containing the pseudotyped particles were collected 48–72 hours after transfection, clarified by centrifugation, aliquoted and stored at -80°C until use. Pseudotype particles lacking envelope glycoproteins, which are generated by co-transfecting the luciferase HIV-1 pro-viral backbone with an empty expression vector, are used as negative control for all pseudotype infections. Pseudotype stocks were quantitated using a p24^gag antigen capture ELISA (SAIC-National Cancer Institute) and normalized amounts of stocks were used to infect target cells for 5–6 hours at 37°C. At 2–3 days post-infection, the cells were washed with PBS and lysed, and the amount of entry mediated by each Env was measured by detecting luciferase activity (Luciferase Assay System, Promega) in a microplate luminometer (GloMax, Promega), following manufacturer's instructions. Results are obtained as relative light units (RLU) per second. At least three independent experiments were performed for each analysis described below, with 2–8 replicates within each experiment.
(§3) To test for sensitivity to fusion inhibitors, BMS-378806 and HNG-105, the medium from HOS-CD4-CCR5 cells plated in 96-well plates 24 hours before infection, was removed and replaced by fresh medium containing 2× the final concentration of the corresponding inhibitor, and immediately the same volume of viral stocks was added. After 5–6 hours at 37°C, inocula and inhibitors were removed and the cells were incubated for 2–3 days before evaluating the amount of infection.
(§4) Inhibition curves obtained by plotting the relative infection (expressed as a percent of untreated) versus the concentration of the inhibitor were analyzed by non-linear regression with a sigmoidal dose-response model (variable slopes) using GraphPad Prism software, version 4.02 (GraphPad Software, San Diego, CA); this analysis uses a four parameter logistic equation, Y = Bottom + (Top-Bottom)/( 1+10^((log10IC50−X)⋅Slope) ) where Y is the response, Bottom is 0 and Top is 100, X is the logarithm of the concentration, and Slope is the slope of the curve. 50% inhibitory concentrations (IC50) and 95% confidence intervals were estimated from the non-linear regression analysis. Fusogenicity data were analyzed by non-linear regression with a one-phase exponential model (using GraphPad Prism) that uses the equation Y=Ymax(1-e^(-kX)), where Ymax is the maximum response and k is the observed rate. CD4 dependence data were analyzed with SPSS, version 16, using the non-parametric Mann-Whitney test.

[5] = tested on: Spl (spleen-derived) Env pseudotype; assay type: cell-based, HIV-1; settings: HOS-CD4-CCR5 cells, inhibitor + virus 5–6 h at 37°C, luciferase at 2–3 days, non-linear regression, 95% confidence limits in parentheses
Procedure: as §2, §3, §4

BaL Env pseudotype = assay type: cell-based, HIV-1; settings: HOS-CD4-CCR5 cells, inhibitor + virus 5–6 h at 37°C, luciferase at 2–3 days, non-linear regression, 95% confidence limits in parentheses
Procedure: as §2, §3, §4

[6] = tested on: Br(N283T) mutant Env pseudotype; assay type: cell-based, HIV-1; settings: HOS-CD4-CCR5 cells, inhibitor + virus 5–6 h at 37°C, luciferase at 2–3 days, non-linear regression, 95% confidence limits in parentheses
Procedure: as §2, §3, §4

[7] = tested on: Bv1v2 chimeric Env pseudotype; assay type: cell-based, HIV-1; settings: HOS-CD4-CCR5 cells, inhibitor + virus 5–6 h at 37°C, luciferase at 2–3 days, non-linear regression, 95% confidence limits in parentheses
Procedure: as §2, §3, §4

[8] = tested on: Bv1v3 chimeric Env pseudotype; assay type: cell-based, HIV-1; settings: HOS-CD4-CCR5 cells, inhibitor + virus 5–6 h at 37°C, luciferase at 2–3 days, non-linear regression, 95% confidence limits in parentheses
Procedure: as §2, §3, §4

[9] = tested on: SB chimeric Env (spleen gp120-brain gp41) pseudotype; assay type: cell-based, HIV-1; settings: HOS-CD4-CCR5 cells, inhibitor + virus 5–6 h at 37°C, luciferase at 2–3 days, non-linear regression, 95% confidence limits in parentheses
Procedure: as §2, §3, §4

[10] = tested on: BS chimeric Env (brain gp120-spleen gp41) pseudotype; assay type: cell-based, HIV-1; settings: HOS-CD4-CCR5 cells, inhibitor + virus 5–6 h at 37°C, luciferase at 2–3 days, non-linear regression, 95% confidence limits in parentheses
Procedure: as §2, §3, §4

[11] = tested on: Br (brain-derived) Env pseudotype; assay type: cell-based, HIV-1; settings: HOS-CD4-CCR5 cells, inhibitor + virus 5–6 h at 37°C, luciferase at 2–3 days, non-linear regression, 95% confidence limits in parentheses
Procedure: as §2, §3, §4

[12] = tested on: DS17(N283T) mutant Env pseudotype; assay type: cell-based, HIV-1; settings: HOS-CD4-CCR5 cells, inhibitor + virus 5–6 h at 37°C, luciferase at 2–3 days, non-linear regression, 95% confidence limits in parentheses
Procedure: as §2, §3, §4

| SMILES | IC50 (HxB Env pseudotype) | relation of inhibitor sensitivity to macrophage tropism (macrophage-tropic Env) | IC50 [1] | IC50 [2] | IC50 [3] | sensitivity of pseudotypes to inhibitor ([4]; BR, BR(N283T), BS and Bv1v3 Env vs SPL, SPL(T283N), SB, Sv1v3 or Sv1v2) | sensitivity of pseudotypes to inhibitor ([4]; DS17 and DS17(N283T) Env vs BR and Env with related phenotype) | IC50 (DS17 Env pseudotype) | IC50 [5] | IC50 (BaL Env pseudotype) | IC50 [6] | IC50 [7] | IC50 [8] | IC50 [9] | IC50 [10] | IC50 [11] | IC50 [12] |
| --- | --- | --- | --- | --- | --- | --- | --- | --- | --- | --- | --- | --- | --- | --- | --- | --- | --- |
| COc1ccnc2[nH]cc(C(=O)C(=O)N3CCN(C(=O)c4ccccc4)C[C@H]3C)c12 [BMS-378806] | 3.9 nM | correlated with increasing macrophage tropism | 0.9 nM | 1.2 nM | 0.9 nM | significantly less sensitive to inhibition by BMS-378806 | reduced sensitivity to BMS-378806 as compared to the BR | 41 nM | 1.8 nM | 29 nM | 13 nM | 4.8 nM | 8.2 nM | 2 nM | 20 nM | 15 nM | 32 nM |
| CC[C@H](C)[C@H](NC(=O)[C@H](CCC(N)=O)NC(=O)[C@H](C)NC(=O)[C@H](CCC(N)=O)NC(=O)[C@H](CCC(=O)O)NC(=O)[C@H](CC(C)C)NC(=O)[C@H](CC(C)C)NC(=O)[C@H](C)NC(=O)[C@@H](NC(=O)[C@@H](NC(=O)[C@H](CCCCN)NC(=O)[C@H](CCC(N)=O)NC(=O)[C@H](CCC(=O)O)NC(=O)[C@H](Cc1c[nH]c2ccccc12)NC(=O)[C@H](CCC(=O)O)NC(=O)[C@H](CCC(N)=O)NC(=O)[C@@H](N)Cc1c[nH]c2ccccc12)[C@@H](C)CC)[C@@H](C)O)C(=O)N[C@@H](CCC(N)=O)C(=O)N[C@@H](CCC(N)=O)C(=O)N[C@@H](CCC(=O)O)C(=O)N[C@@H](CCSC)C(=O)N[C@@H](CC(N)=O)C(=O)N[C@@H](CCC(=O)O)C(=O)N[C@@H](CCC(N)=O)C(=O)N[C@@H](CCC(=O)O)C(=O)N[C@@H](CC(C)C)C(=O)N[C@@H](CCC(N)=O)C(=O)N[C@@H](CCCCN)C(=O)N[C@@H](CC(C)C)C(=O)N[C@@H](CC(=O)O)C(=O)N[C@H](C(=O)N[C@@H](Cc1c[nH]c2ccccc12)C(=O)N[C@@H](C)C(=O)N[C@@H](CO)C(=O)N[C@@H](CC(C)C)C(=O)N[C@@H](Cc1c[nH]c2ccccc12)C(=O)N[C@@H](CCC(=O)O)C(=O)N[C@@H](Cc1c[nH]c2ccccc12)C(=O)N[C@@H](Cc1ccccc1)C(=O)O)[C@@H](C)O [T-1249-BR] (H-WQEWEQKITALLEQAQIQQEMNEQELQKLDTWASLWEWF-OH) |  |  |  |  |  |  |  | 92 nM | 27 nM | 124 nM | 221 nM | 155 nM | 245 nM | 41 nM | 155 nM | 195 nM | 104 nM |
| CC[C@H](C)[C@H](NC(=O)[C@H](CCC(N)=O)NC(=O)[C@H](C)NC(=O)[C@H](CCC(N)=O)NC(=O)[C@H](CCC(=O)O)NC(=O)[C@H](CC(C)C)NC(=O)[C@H](CC(C)C)NC(=O)[C@H](C)NC(=O)[C@@H](NC(=O)[C@@H](NC(=O)[C@H](CCCCN)NC(=O)[C@H](CCC(N)=O)NC(=O)[C@H](CCC(=O)O)NC(=O)[C@H](Cc1c[nH]c2ccccc12)NC(=O)[C@H](CCC(=O)O)NC(=O)[C@H](CCC(N)=O)NC(=O)[C@@H](N)Cc1c[nH]c2ccccc12)[C@@H](C)CC)[C@@H](C)O)C(=O)N[C@@H](CCC(N)=O)C(=O)N[C@@H](CCC(N)=O)C(=O)N[C@@H](CCC(=O)O)C(=O)N[C@@H](CCCCN)C(=O)N[C@@H](CC(N)=O)C(=O)N[C@@H](CCC(=O)O)C(=O)N[C@@H](Cc1ccc(O)cc1)C(=O)N[C@@H](CCC(=O)O)C(=O)N[C@@H](CC(C)C)C(=O)N[C@@H](CCC(N)=O)C(=O)N[C@@H](CCCCN)C(=O)N[C@@H](CC(C)C)C(=O)N[C@@H](CC(=O)O)C(=O)N[C@@H](CCCCN)C(=O)N[C@@H](Cc1c[nH]c2ccccc12)C(=O)N[C@@H](C)C(=O)N[C@@H](CO)C(=O)N[C@@H](CC(C)C)C(=O)N[C@@H](Cc1c[nH]c2ccccc12)C(=O)N[C@@H](CCC(=O)O)C(=O)N[C@@H](Cc1c[nH]c2ccccc12)C(=O)N[C@@H](Cc1ccccc1)C(=O)O [T-1249] |  |  |  |  |  |  |  | 210 nM | 37 nM | 102 nM | 166 nM | 224 nM | 227 nM | 83 nM | 140 nM | 173 nM | 155 nM |
